According to PubChem BioAssay (NCI):
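GI50 is the concentration that inhibits growth by half. TGI is the concentration that stops growth completely.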

Assays:
Assay in all cases: growth of human tumour cells (NCI), 384-well format
786-0 renal = test system: 786-0 renal
A498 renal = test system: A498 renal
A549 NSCLC = test system: A549 NSCLC
ACHN renal = test system: ACHN renal
BT-549 breast = test system: BT-549 breast
CAKI-1 renal = test system: CAKI-1 renal
COLO 205 colon = test system: COLO 205 colon
DU-145 prostate = test system: DU-145 prostate
EKVX NSCLC = test system: EKVX NSCLC
HCT-116 colon = test system: HCT-116 colon
HCT-15 colon = test system: HCT-15 colon
HL-60(TB) leukemia = test system: HL-60(TB) leukemia
HOP-62 NSCLC = test system: HOP-62 NSCLC
HOP-92 NSCLC = test system: HOP-92 NSCLC
HS 578T breast = test system: HS 578T breast
HT29 colon = test system: HT29 colon
IGROV1 ovarian = test system: IGROV1 ovarian
K-562 leukemia = test system: K-562 leukemia
KM12 colon = test system: KM12 colon
M14 melanoma = test system: M14 melanoma
MALME-3M melanoma = test system: MALME-3M melanoma
MCF7 breast = test system: MCF7 breast
MDA-MB-231 breast = test system: MDA-MB-231 breast
MDA-MB-435 melanoma = test system: MDA-MB-435 melanoma
MDA-MB-468 breast = test system: MDA-MB-468 breast
MOLT-4 leukemia = test system: MOLT-4 leukemia
NCI-H226 lung = test system: NCI-H226 lung
NCI-H23 lung = test system: NCI-H23 lung
NCI-H322M lung = test system: NCI-H322M lung
NCI-H460 NSCLC = test system: NCI-H460 NSCLC
NCI-H522 lung = test system: NCI-H522 lung
OVCAR-3 ovarian = test system: OVCAR-3 ovarian
OVCAR-4 ovarian = test system: OVCAR-4 ovarian
OVCAR-5 ovarian = test system: OVCAR-5 ovarian
OVCAR-8 ovarian = test system: OVCAR-8 ovarian
PC-3 prostate = test system: PC-3 prostate
RXF 393 renal = test system: RXF 393 renal
SF-268 CNS = test system: SF-268 CNS
SF-295 CNS = test system: SF-295 CNS
SF-539 CNS = test system: SF-539 CNS
SK-MEL-2 melanoma = test system: SK-MEL-2 melanoma
SK-MEL-28 melanoma = test system: SK-MEL-28 melanoma
SK-MEL-5 melanoma = test system: SK-MEL-5 melanoma
SK-OV-3 ovarian = test system: SK-OV-3 ovarian
SN12C renal = test system: SN12C renal
SNB-19 CNS = test system: SNB-19 CNS
SNB-75 CNS = test system: SNB-75 CNS
SR leukemia = test system: SR leukemia
SW-620 colon = test system: SW-620 colon
T-47D breast = test system: T-47D breast
TK-10 renal = test system: TK-10 renal
U251 glioblastoma = test system: U251 glioblastoma
UACC-257 melanoma = test system: UACC-257 melanoma
UACC-62 melanoma = test system: UACC-62 melanoma
UO-31 renal = test system: UO-31 renal

CN[C@@H](C)C(=O)N[C@H](C(=O)N1CCC[C@H]1C(=O)Nc1sc(-c2ncco2)nc1-c1ccccc1)C1CCCCC1
GI50 ([…]-0 renal): 6.69 µM
TGI (786-0 renal): 19.9 µM
GI50 (A498 renal): 5.13 µM
TGI (A498 renal): 17.9 µM
GI50 (A549 NSCLC): 11.6 µM
TGI (A549 NSCLC): > 100 µM
GI50 (ACHN renal): 4.35 µM
TGI (ACHN renal): 17.2 µM
GI50 (BT-549 breast): 0.234 µM
TGI (BT-549 breast): 2.32 µM
GI50 (CAKI-1 renal): 11.2 µM
TGI (CAKI-1 renal): 23.3 µM
GI50 (COLO 205 colon): 2.05 µM
TGI (COLO 205 colon): 16 µM
GI50 (DU-145 prostate): 1.03 µM
TGI (DU-145 prostate): 10.5 µM
GI50 (EKVX NSCLC): 10.7 µM
TGI (EKVX NSCLC): 32.2 µM
GI50 (HCT-116 colon): 0.43 µM
TGI (HCT-116 colon): 14.3 µM
GI50 (HCT-15 colon): 8.22 µM
TGI (HCT-15 colon): 21.4 µM
GI50 (HL-60(TB) leukemia): 0.0148 µM
TGI (HL-60(TB) leukemia): 0.584 µM
GI50 (HOP-62 NSCLC): 1.08 µM
TGI (HOP-62 NSCLC): 2.68 µM
GI50 (HOP-92 NSCLC): 9.99 µM
TGI (HOP-92 NSCLC): 21.8 µM
GI50 (HS 578T breast): 0.609 µM
TGI (HS 578T breast): 15.4 µM
GI50 (HT29 colon): 5.63 µM
TGI (HT29 colon): 18.1 µM
GI50 (IGROV1 ovarian): 10.5 µM
TGI (IGROV1 ovarian): 24.5 µM
GI50 (K-562 leukemia): 2.18 µM
TGI (K-562 leukemia): 16.6 µM
GI50 (KM12 colon): 1.21 µM
TGI (KM12 colon): 10.5 µM
GI50 (M14 melanoma): 8.12 µM
TGI (M14 melanoma): 20.8 µM
GI50 (MALME-3M melanoma): 0.0256 µM
TGI (MALME-3M melanoma): 0.74 µM
GI50 (MCF7 breast): 0.16 µM
TGI (MCF7 breast): 1.18 µM
GI50 (MDA-MB-231 breast): 0.14 µM
TGI (MDA-MB-231 breast): 0.909 µM
GI50 (MDA-MB-435 melanoma): 1.6 µM
TGI (MDA-MB-435 melanoma): 13.5 µM
GI50 (MDA-MB-468 breast): 0.476 µM
TGI (MDA-MB-468 breast): 5.23 µM
GI50 (MOLT-4 leukemia): 4.34 µM
TGI (MOLT-4 leukemia): 14.9 µM
GI50 (NCI-H226 lung): 5.52 µM
TGI (NCI-H226 lung): 27.5 µM
GI50 (NCI-H23 lung): 0.159 µM
TGI (NCI-H23 lung): 1.28 µM
GI50 (NCI-H322M lung): 13.5 µM
TGI (NCI-H322M lung): 39.6 µM
GI50 (NCI-H460 NSCLC): 7.4 µM
TGI (NCI-H460 NSCLC): 21.3 µM
GI50 (NCI-H522 lung): 0.0966 µM
TGI (NCI-H522 lung): 1.08 µM
GI50 (OVCAR-3 ovarian): 1.36 µM
TGI (OVCAR-3 ovarian): 15.5 µM
GI50 (OVCAR-4 ovarian): < 0.01 µM
GI50 (OVCAR-5 ovarian): 10.7 µM
TGI (OVCAR-5 ovarian): 34.2 µM
GI50 (OVCAR-8 ovarian): 1.02 µM
TGI (OVCAR-8 ovarian): 2.87 µM
GI50 (PC-3 prostate): 6.22 µM
TGI (PC-3 prostate): 19.8 µM
GI50 (RXF 393 renal): < 0.01 µM
TGI (RXF 393 renal): 0.0402 µM
GI50 (SF-268 CNS): 10.4 µM
TGI (SF-268 CNS): 22.3 µM
GI50 (SF-295 CNS): 3.72 µM
TGI (SF-295 CNS): 14.7 µM
GI50 (SF-539 CNS): 3.44 µM
TGI (SF-539 CNS): 17.3 µM
GI50 (SK-MEL-2 melanoma): < 0.01 µM
TGI (SK-MEL-2 melanoma): 1.04 µM
GI50 (SK-MEL-28 melanoma): 2.64 µM
TGI (SK-MEL-28 melanoma): 16.7 µM
GI50 (SK-MEL-5 melanoma): 0.114 µM
TGI (SK-MEL-5 melanoma): 1.38 µM
GI50 (SK-OV-3 ovarian): < 0.01 µM
TGI (SK-OV-3 ovarian): 0.064 µM
GI50 (SN12C renal): 11 µM
TGI (SN12C renal): 23.6 µM
GI50 (SNB-19 CNS): 18.6 µM
TGI (SNB-19 CNS): 61.4 µM
GI50 (SNB-75 CNS): 2.52 µM
TGI (SNB-75 CNS): 11.1 µM
GI50 (SR leukemia): 0.182 µM
TGI (SR leukemia): 0.592 µM
GI50 (SW-620 colon): 3.66 µM
TGI (SW-620 colon): 17.9 µM
GI50 (T-47D breast): 16.7 µM
TGI (T-47D breast): 30.5 µM
GI50 (TK-10 renal): 11.3 µM
TGI (TK-10 renal): 24.4 µM
GI50 (U251 glioblastoma): 5.48 µM
TGI (U251 glioblastoma): 19.3 µM
GI50 (UACC-257 melanoma): 2.27 µM
TGI (UACC-257 melanoma): 13.3 µM
GI50 (UACC-62 melanoma): 0.781 µM
TGI (UACC-62 melanoma): 10.9 µM
GI50 (UO-31 renal): 15.9 µM
TGI (UO-31 renal): 29.6 µM
